Reference: ChEMBL document CHEMBL1158611, “Trichoderins, novel aminolipopeptides from a marine sponge-derived Trichoderma sp., are active against dormant mycobacteria” (2010)
Values after ≈ are worked out from the molar mass of the structure shown. *1 amine or outer side, *2 acyl side, *3 side chain or, on linkers, in order; H or OH if unused. Where a SMILES comes first, the peptide text is derived from it. [ ]: non-standard residue; d: D form. The star is where a group is joined. X2 = CCC(=O)C[C@@H](O)C[C@@H](C)C[C@H](N[*:1])C(=O)[*:2]; X1 = CCC(=O)/C=C/C[C@@H](C)C[C@H](N[*:1])C(=O)[*:2]; Alaψ(CH2NMeCH2CH2OH) = C[C@@H](CN(C)CCO)N*; Decanoyl(2R-Me) = CCCCCCCC[C@@H](C)C(=O)*; Aib = CC(C)(N)C(=O)O

Assays:
[1] = tested on: Mycobacterium tuberculosis; assay: Antimycobacterial activity against Mycobacterium bovis BCG under dormancy-inducing hypoxic condition; format: functional; settings: variant bovis BCG
[2] = tested on: Mycobacterium tuberculosis; assay: Antimycobacterial activity against Mycobacterium bovis BCG under aerobic condition; format: functional; settings: variant bovis BCG

SMILES	MIC [1] [µg/mL]	MIC [2] [µg/mL]
NNC(=O)c1ccncc1 [ISONIAZID]	> 100	0.03 (≈ 0.219 µM)
CCCCCCCC[C@@H](C)C(=O)N1CCC[C@H]1C(=O)N[C@@H](C[C@H](C)C/C=C/C(=O)CC)C(=O)NC(C)(C)C(=O)NC(C)(C)C(=O)N[C@H](C(=O)N[C@H](C(=O)NC(C)(C)C(=O)NC(C)(C)C(=O)N[C@@H](C)CN(C)CCO)C(C)C)[C@@H](C)CC [TRICHODERIN A1] ({Decanoyl(2R-Me)}-P[X1][Aib][Aib]IV[Aib][Aib]-{Alaψ(CH2NMeCH2CH2OH)})	0.16 (≈ 0.14 µM)	0.16 (≈ 0.14 µM)
CCCCCCCC[C@@H](C)C(=O)N1CCC[C@H]1C(=O)N[C@@H](C[C@H](C)C[C@H](O)CC(=O)CC)C(=O)NC(C)(C)C(=O)NC(C)(C)C(=O)N[C@H](C(=O)N[C@H](C(=O)NC(C)(C)C(=O)NC(C)(C)C(=O)N[C@@H](C)CN(C)CCO)C(C)C)[C@@H](C)CC [TRICHODERIN A] ({Decanoyl(2R-Me)}-P[X2][Aib][Aib]IV[Aib][Aib]-{Alaψ(CH2NMeCH2CH2OH)})	0.02 (≈ 0.0172 µM)	0.02 (≈ 0.0172 µM)
CCCCCCCC[C@@H](C)C(=O)N1CCC[C@H]1C(=O)N[C@@H](C[C@H](C)C[C@H](O)CC(=O)CC)C(=O)NC(C)(C)C(=O)NC(C)(C)C(=O)N[C@H](C(=O)N[C@H](C(=O)NC(C)(C)C(=O)NC(C)(C)C(=O)N[C@@H](C)CN(C)CCO)C(C)C)C(C)C [TRICHODERIN B] ({Decanoyl(2R-Me)}-P[X2][Aib][Aib]VV[Aib][Aib]-{Alaψ(CH2NMeCH2CH2OH)})	0.02 (≈ 0.0174 µM)	0.02 (≈ 0.0174 µM)
